Measured values taken from ChEMBL document CHEMBL1201862, “PubChem BioAssay data set” (2004).
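Interpolation was linear, between the two tested concentrations surrounding the appropriate level; five concentrations were tested over 48 hours in 96-well plates. GI50: concentration for 50% inhibition of growth.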 Activity calls are given as the source filed them. No stated cut-off is given here; in the data, active = GI50 up to about 1.1 µM and inactive = higher.

Assays:
Test in all cases: DTP human tumour cell line panel, 48 h
ACHN = test system: ACHN
CCRF-CEM = test system: CCRF-CEM
COLO 205 = test system: COLO 205
HCT-15 = test system: HCT-15
HOP-92 = test system: HOP-92
IGROV-1 = test system: IGROV-1
K562 = test system: K562
MDA-N = test system: MDA-N
MOLT-4 = test system: MOLT-4
NCI-H23 = test system: NCI-H23
NCI/ADR-RES = test system: NCI/ADR-RES
RPMI-8226 = test system: RPMI-8226
SF-295 = test system: SF-295
SK-MEL-28 = test system: SK-MEL-28
SK-MEL-2 = test system: SK-MEL-2
SK-MEL-5 = test system: SK-MEL-5
SN12C = test system: SN12C
SR = test system: SR
SF-539 = test system: SF-539
Hs-578T = test system: Hs-578T

Row | SMILES | GI50 (ACHN) | GI50 (CCRF-CEM) | GI50 (COLO 205) | GI50 (HCT-15) | GI50 (HOP-92) | GI50 (IGROV-1) | GI50 (K562) | GI50 (MDA-N) | GI50 (MOLT-4) | GI50 (NCI-H23) | GI50 (NCI/ADR-RES) | GI50 (RPMI-8226) | GI50 (SF-295) | GI50 (SK-MEL-28) | GI50 (SK-MEL-2) | GI50 (SK-MEL-5) | GI50 (SN12C) | GI50 (SR) | GI50 (SF-539) | GI50 (Hs-578T)
1 | CCCCc1ccc(-n2sc3ncc(-c4ccccc4)cc3c2=O)cc1 | > 100 µM (inactive) | > 100 µM (inactive) | > 100 µM (inactive) | > 100 µM | > 100 µM (inactive) | > 100 µM (inactive) | > 100 µM (inactive) | > 100 µM (inactive) | > 100 µM (inactive) | > 100 µM (inactive) | > 100 µM (inactive) | > 100 µM (inactive) | > 100 µM (inactive) | > 100 µM (inactive) | > 100 µM (inactive) | > 100 µM (inactive) | > 100 µM (inactive) | > 100 µM (inactive) |  | 
2 | O=[N+]([O-])c1ccc2nc(/C(=N\Nc3ccccc3)C(O)c3ccc4c(c3)OCO4)c(O)nc2c1 (stereo not given) | 30.7 µM (inactive) | > 100 µM (inactive) | > 100 µM (inactive) | 20.7 µM | 11 µM (inactive) | 7.74 µM (inactive) | 36.4 µM (inactive) |  | > 100 µM (inactive) | > 100 µM (inactive) |  | 86.1 µM (inactive) | > 100 µM (inactive) | > 100 µM (inactive) | > 100 µM (inactive) | > 100 µM (inactive) | > 100 µM (inactive) | 91.6 µM (inactive) | > 100 µM (inactive) | 
3 | CNc1nc(=S)[nH]c2sc3c(c12)CCCC3 | > 75 µM (inactive) |  | > 75 µM (inactive) | > 75 µM |  | > 75 µM (inactive) | > 75 µM (inactive) |  | > 75 µM (inactive) | > 75 µM (inactive) | > 75 µM (inactive) | > 75 µM (inactive) | > 75 µM (inactive) | > 75 µM (inactive) | > 75 µM (inactive) | > 75 µM (inactive) | > 75 µM (inactive) | > 75 µM (inactive) |  | > 75 µM (inactive)
4 | COc1cc(/C=C2/C(=O)N/C(=N\C(C)=O)N2C)ccc1OC(C)=O | > 100 µM (inactive) |  | > 100 µM (inactive) | > 100 µM | > 100 µM (inactive) | > 100 µM (inactive) |  | > 100 µM (inactive) | > 100 µM (inactive) | > 100 µM (inactive) | > 100 µM (inactive) |  | > 100 µM (inactive) | > 100 µM (inactive) | > 100 µM (inactive) | > 100 µM (inactive) | > 100 µM (inactive) |  | > 100 µM (inactive) | 
5 | CCOC(=O)c1sc2nc(SC)nc(Nc3ccc4c(c3)OCCO4)c2c1N | 7.28 µM (inactive) | 16.9 µM (inactive) | 5.45 µM (inactive) |  | 13.1 µM (inactive) | 29.9 µM (inactive) | 20.6 µM (inactive) | 10.4 µM (inactive) | 8.05 µM (inactive) | 14.2 µM (inactive) | 21.6 µM (inactive) | 12.6 µM (inactive) | 42.3 µM (inactive) | > 100 µM (inactive) | 15 µM (inactive) | 7.53 µM (inactive) | 8.49 µM (inactive) | 20.5 µM (inactive) | 7.52 µM (inactive) | 
6 | Cc1c(N2C(=O)/C(=C/C=C/c3ccccc3)N=C2c2ccccc2)c(=O)n(-c2ccccc2)n1C | 17.8 µM (inactive) | 27.2 µM (inactive) | 15.5 µM (inactive) | 5.45 µM | 22.2 µM (inactive) | 16.3 µM (inactive) | 19 µM (inactive) | 17.8 µM (inactive) | 14.9 µM (inactive) | 22 µM (inactive) | 21.7 µM (inactive) | 19.1 µM (inactive) | 19.1 µM (inactive) |  | 21.8 µM (inactive) | 16.3 µM (inactive) | 24.5 µM (inactive) | 17.4 µM (inactive) | 21.3 µM (inactive) | 
7 | CC(=O)n1nc(-c2ccccc2)n(/N=C/c2ccc([N+](=O)[O-])cc2)c1=O | > 100 µM (inactive) | > 100 µM (inactive) | > 100 µM (inactive) | > 100 µM | 59.3 µM (inactive) | > 100 µM (inactive) | > 100 µM (inactive) | > 100 µM (inactive) | > 100 µM (inactive) | > 100 µM (inactive) | > 100 µM (inactive) | > 100 µM (inactive) | > 100 µM (inactive) | > 100 µM (inactive) | > 100 µM (inactive) | > 100 µM (inactive) | > 100 µM (inactive) | > 100 µM (inactive) | > 100 µM (inactive) | 
8 | COC(=O)/C(=C(/C)c1ccco1)P(=O)(OC)OC | > 100 µM (inactive) | > 100 µM (inactive) | > 100 µM (inactive) | > 100 µM | > 100 µM (inactive) | > 100 µM (inactive) |  |  | > 100 µM (inactive) | > 100 µM (inactive) | > 100 µM (inactive) | > 100 µM (inactive) | > 100 µM (inactive) | > 100 µM (inactive) | > 100 µM (inactive) | > 100 µM (inactive) | > 100 µM (inactive) | > 100 µM (inactive) | > 100 µM (inactive) | > 100 µM (inactive)
9 | O=C(O)CCC(NC(=O)c1ccc(Nc2nc3cc(C(F)(F)F)ccc3nc2-c2ccccc2)cc1)C(=O)O (stereo not given) |  | 97.3 µM (inactive) | > 55.7 µM (inactive) | 60.3 µM | > 52.6 µM (inactive) | > 100 µM (inactive) | 34.4 µM (inactive) |  | 44.6 µM (inactive) | > 100 µM (inactive) | 62.1 µM (inactive) | > 63.1 µM (inactive) | 20.4 µM (inactive) | > 100 µM (inactive) | > 100 µM (inactive) | > 100 µM (inactive) | > 100 µM (inactive) |  | > 84.7 µM (inactive) | 
10 | CCOC(=O)c1c(C)c2c(n1C)CCc1c[nH]nc1-2 |  | > 100 µM (inactive) | > 100 µM (inactive) | > 100 µM | > 100 µM (inactive) | > 100 µM (inactive) | > 100 µM (inactive) |  | > 100 µM (inactive) | > 100 µM (inactive) | > 100 µM (inactive) | > 100 µM (inactive) | > 100 µM (inactive) | > 100 µM (inactive) | > 100 µM (inactive) | > 100 µM (inactive) | > 100 µM (inactive) |  | > 100 µM (inactive) | 
11 | COc1ccc(Oc2ccccc2N)cc1 | 24.5 µM (inactive) | 10.7 µM (inactive) | 16.6 µM (inactive) | 9.51 µM | 96.2 µM (inactive) | 36.6 µM (inactive) | 29.5 µM (inactive) |  | 18 µM (inactive) | 43 µM (inactive) |  | 31.8 µM (inactive) | 26.1 µM (inactive) | 28.2 µM (inactive) | 57 µM (inactive) | 13.2 µM (inactive) | 44.8 µM (inactive) | 18.3 µM (inactive) | 20.2 µM (inactive) | 
12 | NNC(=O)/C(NC(=O)c1ccccc1)=C(\N)c1ccc(Cl)cc1 | > 100 µM (inactive) | 38.2 µM (inactive) | > 100 µM (inactive) | > 100 µM | > 100 µM (inactive) | > 100 µM (inactive) | 89.3 µM (inactive) |  | 28.3 µM (inactive) | > 100 µM (inactive) |  | 73.5 µM (inactive) | > 100 µM (inactive) | > 100 µM (inactive) | > 100 µM (inactive) | > 100 µM (inactive) | > 100 µM (inactive) | 83.8 µM (inactive) | > 100 µM (inactive) | 
13 | c1ccc(C2=NOC3(c4ccccc4)SC4CCCCC4CN23)cc1 (stereo not given) | 26.2 µM (inactive) | 6.38 µM (inactive) | 27.6 µM (inactive) | 26.7 µM | 15.9 µM (inactive) | 14.7 µM (inactive) | 20.2 µM (inactive) |  | 12.7 µM (inactive) | 29.8 µM (inactive) |  | 22 µM (inactive) | 28.1 µM (inactive) | 89.1 µM (inactive) | 31.3 µM (inactive) | 15.2 µM (inactive) | 52.5 µM (inactive) | 25 µM (inactive) | 18.7 µM (inactive) | 
14 | CC(C)(c1ccc(OC#N)cc1)c1ccc(OC#N)cc1 | > 100 µM (inactive) | > 55.7 µM (inactive) | > 46.6 µM (inactive) | 20.3 µM | > 100 µM (inactive) | > 100 µM (inactive) | > 70 µM (inactive) |  | > 100 µM (inactive) | > 100 µM (inactive) |  | > 52.6 µM (inactive) | > 100 µM (inactive) | > 100 µM (inactive) | > 100 µM (inactive) | > 100 µM (inactive) | > 100 µM (inactive) | 27 µM (inactive) | > 100 µM (inactive) | 
15 | Fc1ccc(-c2sc(-c3ccsc3)cc2Cc2ccsc2)cc1 |  | > 10 µM (inactive) | > 10 µM (inactive) | > 10 µM | > 10 µM (inactive) | > 10 µM (inactive) | > 10 µM (inactive) | > 10 µM (inactive) | > 10 µM (inactive) | > 10 µM (inactive) |  | > 10 µM (inactive) | > 10 µM (inactive) | > 10 µM (inactive) |  | > 10 µM (inactive) | > 10 µM (inactive) | > 10 µM (inactive) |  | 
16 | O=C1C=C2SC3C[C@@]24CC1[N+]1=c2c4c(c(O)c4c2=C(C=N4)CC1)N3 |  | 2 µM (inactive) | 1.91 µM (inactive) | 3.4 µM | > 100 µM (inactive) | 2.44 µM (inactive) | 2.44 µM (inactive) |  | 1.53 µM (inactive) |  | 6.68 µM (inactive) | 2.08 µM (inactive) | 3.43 µM (inactive) | 1.94 µM (inactive) | 1.82 µM (inactive) | 1.88 µM (inactive) | 2.67 µM (inactive) |  | 1.9 µM (inactive) | 
17 | Oc1cc(O)cc(/C=C/c2ccc(O)c(O)c2)c1 [PICEATANNOL] |  | 4.32 µM (inactive) | 23.3 µM (inactive) | 5.9 µM | 12.3 µM (inactive) | 9.64 µM (inactive) | 4.49 µM (inactive) |  | 5.51 µM (inactive) | 17.3 µM (inactive) | 16.6 µM (inactive) | 10.3 µM (inactive) | 16.5 µM (inactive) | 49.9 µM (inactive) | 3.87 µM (inactive) | 11.1 µM (inactive) | 12.4 µM (inactive) |  | 8.91 µM (inactive) | 
